Laboratory results published in US20090317357A1, “Methods for treating or preventing autoimmune disease using histamine h1 receptor-blocking agents” (priority 2003, published 2009).

Key:
EAE in SJL (H-2s) mice = test: EAE induced with PLP139-151 in SJL mice, daily i.p. treatment with H1R or PAFR antagonist; type: in vivo; details: day 13, daily i.p. from day 2 after induction, pyrilamine 0.6 mg/mouse, CV6209 1 μg/mouse, vehicle group 3±0.52
Method: Modulation of EAE with H1R antagonist and PAFR antagonist. EAE was induced in SJL/J mice with PLP139-151. The H1R antagonist pyrilamine (0.6 mg/mouse; n=8), PAFR antagonist CV6209 (1 μg/mouse; n=8), or vehicle alone (PBS; n=7) were given daily i.p. starting on day 2 after the induction of EAE.
Mice were assessed daily for clinical signs of EAE (see id.). For each mouse, a remission was defined as decrease of the score of at least one point for at least 2 consecutive days. […] In the pharmacological studies, the histamine receptor 1 antagonist, pyrilamine (Sigma, St Louis, Mo.) and the PAF antagonist, CV6209 (Biomol, Plymouth Meeting, Pa.) were injected daily i.p. in PBS starting 2 days after the induction of EAE.
We targeted pharmacologically PAF and histamine, the main vasoactive mediators of murine anaphylaxis, and evaluated the development of EAE. EAE was induced in SJL (H-2s) mice with PLP139-151 and on the second day after the induction of the disease we started a daily i.p. treatment with the PAFR antagonist CV 6209, or with the H1R antagonist pyrilamine.

EAE = details: cited: Inaba et al. 1999; Inoue et al. 1996; cited from earlier work

Row | Molecule | mean EAE score (EAE in SJL (H-2s) mice) | effect on EAE (EAE)
1 | CCCCCCCCCCCCCCCCCCNC(=O)OCC(COC(=O)N(Cc1cccc[n+]1CC)C(C)=O)OC (stereo not shown) [CV 6209] | 0.71±0.36 | 
2 | dermatan sulfate |  | ameliorate EAE
3 | COc1ccc(CN(CCN(C)C)c2ccccn2)cc1 [pyrilamine] | 0.57±0.2 | 
4 | batroxobin |  | ameliorate EAE
